Measured values from publication PMC10147923, “Pain-causing stinging nettle toxins target TMEM233 to modulate NaV1.7 function” (Nature Communications, 2023).
Values joined by “and” are separate entries in the source; they are usually repeats but may differ in a detail not shown here. Equal values may be shown once. Read-outs that look alike come from different tables or passages of the source. Positions of bridges follow the written chain, without caps; N, C: chain ends. Residues, ends and D or L forms follow the SMILES beside them. *: point of attachment. Biotin = O=C1N[C@H]2[C@H](CS[C@H]2CCCCC(=O)*)N1; PEG4 = NCCOCCOCCOCCOCCC(=O)O

What was measured:
NaV1.7 [1] = target: T1, NaV1.7 (Homo sapiens, UniProt Q15858); test: Recovery from fast inactivation, HEK293-NaV1.7 with peptide in intracellular solution; assay type: cell-based
T1 sequence (Q15858 whole entry): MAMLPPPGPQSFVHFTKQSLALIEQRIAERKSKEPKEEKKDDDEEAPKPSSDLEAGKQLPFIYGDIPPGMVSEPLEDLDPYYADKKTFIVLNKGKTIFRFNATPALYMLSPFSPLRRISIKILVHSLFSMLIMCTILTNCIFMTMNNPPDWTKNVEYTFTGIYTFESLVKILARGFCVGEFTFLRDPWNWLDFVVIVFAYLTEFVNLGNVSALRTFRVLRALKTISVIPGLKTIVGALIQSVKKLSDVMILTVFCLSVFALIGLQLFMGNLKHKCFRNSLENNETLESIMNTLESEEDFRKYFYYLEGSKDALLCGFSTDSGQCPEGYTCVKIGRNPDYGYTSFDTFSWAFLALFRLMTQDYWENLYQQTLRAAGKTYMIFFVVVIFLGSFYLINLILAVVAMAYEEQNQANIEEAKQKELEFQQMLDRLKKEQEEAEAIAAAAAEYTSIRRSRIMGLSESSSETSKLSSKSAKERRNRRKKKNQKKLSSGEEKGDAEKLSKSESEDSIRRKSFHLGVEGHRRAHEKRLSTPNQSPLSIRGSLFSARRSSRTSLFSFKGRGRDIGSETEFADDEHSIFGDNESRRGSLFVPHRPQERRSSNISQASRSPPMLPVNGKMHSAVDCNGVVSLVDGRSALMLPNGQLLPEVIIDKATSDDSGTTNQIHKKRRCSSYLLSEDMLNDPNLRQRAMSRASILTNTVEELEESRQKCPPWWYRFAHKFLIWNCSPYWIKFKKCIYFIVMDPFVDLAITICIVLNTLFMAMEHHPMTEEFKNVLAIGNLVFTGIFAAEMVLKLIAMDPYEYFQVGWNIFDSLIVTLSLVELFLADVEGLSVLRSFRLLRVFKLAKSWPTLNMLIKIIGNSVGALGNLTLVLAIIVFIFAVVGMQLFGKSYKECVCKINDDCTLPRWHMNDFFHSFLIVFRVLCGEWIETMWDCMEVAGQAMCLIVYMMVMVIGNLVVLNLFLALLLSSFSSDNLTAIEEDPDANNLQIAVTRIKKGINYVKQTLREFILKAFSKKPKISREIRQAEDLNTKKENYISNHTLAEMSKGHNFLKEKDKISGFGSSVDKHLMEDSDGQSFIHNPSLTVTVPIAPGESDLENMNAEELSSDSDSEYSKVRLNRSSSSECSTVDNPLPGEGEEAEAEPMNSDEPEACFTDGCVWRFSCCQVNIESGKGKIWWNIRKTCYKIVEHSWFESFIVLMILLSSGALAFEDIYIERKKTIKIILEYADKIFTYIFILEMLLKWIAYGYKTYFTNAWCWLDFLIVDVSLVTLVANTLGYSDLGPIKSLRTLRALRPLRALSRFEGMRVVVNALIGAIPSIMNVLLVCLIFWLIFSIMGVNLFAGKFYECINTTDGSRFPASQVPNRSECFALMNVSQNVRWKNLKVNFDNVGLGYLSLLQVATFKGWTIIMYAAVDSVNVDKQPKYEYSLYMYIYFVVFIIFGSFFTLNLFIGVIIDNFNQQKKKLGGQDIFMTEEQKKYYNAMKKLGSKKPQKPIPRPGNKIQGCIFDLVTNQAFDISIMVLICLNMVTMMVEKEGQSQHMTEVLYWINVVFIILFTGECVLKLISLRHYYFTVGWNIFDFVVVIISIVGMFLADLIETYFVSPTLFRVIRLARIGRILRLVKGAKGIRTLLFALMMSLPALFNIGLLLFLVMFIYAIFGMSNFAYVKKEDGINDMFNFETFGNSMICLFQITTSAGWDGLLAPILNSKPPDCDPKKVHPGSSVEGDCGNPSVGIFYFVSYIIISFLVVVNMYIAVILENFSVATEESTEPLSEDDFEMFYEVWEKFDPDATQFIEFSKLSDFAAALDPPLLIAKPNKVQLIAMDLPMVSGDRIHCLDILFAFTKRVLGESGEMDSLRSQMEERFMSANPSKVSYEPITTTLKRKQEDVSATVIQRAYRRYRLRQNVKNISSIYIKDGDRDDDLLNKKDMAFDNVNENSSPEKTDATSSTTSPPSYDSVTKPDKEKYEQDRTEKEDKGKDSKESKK
T1 sequence (Q07699 19-218, further chain): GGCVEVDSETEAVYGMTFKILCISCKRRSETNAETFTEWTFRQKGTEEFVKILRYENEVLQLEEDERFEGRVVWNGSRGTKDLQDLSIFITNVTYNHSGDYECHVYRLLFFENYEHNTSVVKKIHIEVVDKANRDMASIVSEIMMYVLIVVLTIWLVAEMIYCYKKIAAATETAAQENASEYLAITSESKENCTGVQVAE
Procedure: To determine recovery from fast inactivation, a 20 ms pulse to 0 mV from a holding potential of −90 mV was used to induce fast inactivation. A subsequent recovery period, ranging from 1 ms to 2216 ms in 50% increments at −90 mV, was followed by a last 20 ms test pulses to 0 mV to determine the time-dependence of recovery from fast inactivation. The proportion of available channels was determined by normalizing peak currents from the last to the first pulse. A two-phase exponential equation was fit to the normalized current, plotted as a function of time, to determine the time constants τ1 and τ2 of recovery from fast inactivation.

NaV1.7/TMEM233 [2] = target: T2, NaV1.7/TMEM233 (Homo sapiens, UniProt B4DJY2+Q15858); test: ExTxA-488 binding assay, NaV1.7/TMEM233
Procedure: (§1) HEK293 cells (untransfected controls, or transfected with TMEM233, NaV1.7 or both TMEM233 and NaV1.7), were incubated in suspension with ExTxA conjugated to Alexa Fluor 488 (ExTxA-488) in assay buffer (250 mM NaCl, 25 mM HEPES, pH 7) for 30 min at 4 °C. Unbound ExTxA-488 was removed by washing cells three times with assay buffer. Cells were plated at a density of 100,000 cells per well in a volume of 50 µL in a 384-well OptiPlate (PerkinElmer, Massachusetts, USA). Fluorescence intensity (excitation 490 nm; emission 520 nm) was assessed using an Infinite M1000 Pro (Tecan, Männedorf, Switzerland). Concentration-response curves were fitted using the log (agonist) vs. response—variable slope (four parameters) equation and normalized to the largest fitted top from amongst the four groups as computed by GraphPad Prism Version 9.4.1.

TMEM233 = TMEM233 (Homo sapiens, UniProt B4DJY2); test: ExTxA-488 binding assay, TMEM233
Sequence of TMEM233 (B4DJY2 whole entry): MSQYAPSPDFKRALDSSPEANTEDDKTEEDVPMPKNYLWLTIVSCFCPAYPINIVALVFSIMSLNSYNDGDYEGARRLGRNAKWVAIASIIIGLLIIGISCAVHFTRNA
Procedure: as §1

NaV1.7/TMEM233 [3] = target: T2, NaV1.7/TMEM233; assay type: cell-based; details: best-fit value, log(agonist) vs. response -- variable slope (four parameters)
Procedure: HEK293-NaV1.7 cells were transfected with TMEM233, CRELD1, LMAN2L, MMGT1, RNF121 and STT3B and co-transfected with five plasmids coding for the Glycosylphosphatidylinositol (GPI) complex (GPAA1, PIGK, PIGS, PIGU, PIGT) using Lipofectamine 2000. After 24 h, transfected cells were harvested and plated at a density of 10,000–15,000 cells per well on black-walled 384-well imaging plates. Plated cells were cultured for a further 24 h at 37 °C and 5% CO2. FLIPR (Fluorescent Imaging Plate Reader) Red membrane potential assay dye (Molecular Devices, California, USA) was diluted in physiological salt solution according to the manufacturer’s instructions (PSS, in mM: NaCl 140, glucose 11.5, HEPES 10, KCl 5.9, MgCl2 1.4, NaH2PO4 1.2, NaHCO3 5, CaCl2 1.8, pH 7.4). Growth medium was removed from the plate and replaced with 20 µL of FLIPR Red membrane potential assay dye per well and incubated in the dark at 37 °C for 60 min. […] Fluorescence responses to ExTxA were computed as the maximum change in fluorescence over baseline (ΔF/F0) using ScreenWorks (Molecular Devices, Version 5.1.2.94).

NaV1.7/TMEM233 [4] = target: T2, NaV1.7/TMEM233; assay type: cell-based
HEK293 cells = test: ExTxA-488 binding assay, untransfected/mock HEK293; parameters: species or system human
Procedure: as §1

NaV1.7 [5] = target: T1, NaV1.7; test: ExTxA-488 binding assay, NaV1.7
Procedure: as §1

[6] = system: total and TTX-s NaV current in wild-type DRG neurons; test: Persistent total NaV current, manual patch clamp, mouse DRG neurons; assay type: cell-based
NaV1.7 [7] = target: T1, NaV1.7; assay type: cell-based
[8] = system: NaV1.7 endogenously expressed in TE-671 cells; test: Persistent NaV current, TE-671 cells (automated patch clamp); assay type: cell-based
TE-671 cells = details: veratridine 5 µM, ouabain 20 nM
NaV1.7/TMEM233 [9] = target: T2, NaV1.7/TMEM233; test: Proximity ligation assay NaV1.7 and TMEM233; details: Fig 5e
Procedure: HEK293 cells stably expressing β1/β2 were transiently transfected in T25 flasks using Lipofectamine 2000 with plasmids encoding GFP (0.35 μg) as a transfection control, as well as N-terminal HA-tagged TMEM233 (0.35 μg) and N-terminal FLAG- tagged NaV1.7 (1.0 μg) alone or in combination. The total amount of plasmid DNA/T25 flask was kept constant at 1.7 μg flask using empty pcDNA3.1 plasmid as required. After 24 h incubation at 37 °C, cells were plated on PDL-coated glass coverslips and cultured for a further 24 h. Cells were washed once using sterile phosphate-buffered saline, fixed with 4% formaldehyde for 5 min, permeabilized with 0.1% Triton-X 100 in PSS, blocked using proximity ligation bocking buffer (Sigma DUO82007) and incubated for 1 h with anti-FLAG (1:1000; Sigma F1804) and anti-HA (1:1000; Sigma H6908) antibodies in Duolink antibody diluent. Permeabilized cells were then washed twice with wash buffer A at room temperature for 5 min. Anti-mouse PLUS (Sigma DUO92001) and anti-rabbit MINUS (Sigma DUO92005) probes were diluted 1:5 in Duolink antibody diluent and incubated with cells for 1 h at 37 °C. Cells were then washed with wash buffer A at room temperature for 5 min twice and incubated with ligase diluted 1:40 in ligation buffer. After incubation at 37 °C for 30 mins, cells were washed twice with wash buffer A. Polymerase was diluted 1:80 in amplification buffer and incubated with cells for 100 mins at 37 °C. Cells were subsequently washed with wash buffer B twice for 10 mins and mounted with Duolink In Situ mounting media with DAPI. Cells were imaged on a Zeiss AxioImage M2 with Apotome2 and Axiocam 506 camera. Proximity ligation assay signal (PLA particles) in GFP-positive cells were quantified using ImageJ in collapsed stacks from 3–6 random images obtained per coverslip (Image>Type>8-bit; Image>Adjust>Threshold; Image>Analyze>Analyze Particles). Particles size was set to 0.0003–∞ and circularity to 0.00–1.00. The average number of particles/GFP-positive cells from three independent experiments was analyzed by One-way ANOVA.

In the case of “1-41 TMEM233 (MSQYAPSPDFKRALDSSPEANTEDDKTEEDVPMPKNYLWLT; UniProt B4DJY2 1-41, looked up, fragment)”, the “Tau Fast, difference between means (1-41 TMEM233 - BSA control) ± SEM” value (NaV1.7 [1]) is reported as 3.270 ± 1.361, the “Tau Fast, individual values” (NaV1.7 [1]) is reported as 5.876 and 7.835 and 7.406 and 14.82 and 9.055 and 12.01 and 6.932 and 17.51 and 10.21 and the “Tau Fast, mean” value (NaV1.7 [1]) is reported as 10.18.
In the case of CC[C@H](C)[C@@H]1NC(=O)[C@H](CCCNC(=N)N)NC(=O)[C@H](Cc2ccccc2)NC(=O)[C@H](CC(C)C)NC(=O)[C@H](CO)NC(=O)[C@@H]2CSSC[C@@H]3NC(=O)[C@H]([C@@H](C)O)NC(=O)[C@H](CSSC[C@H](NC(=O)[C@H](CCCNC(=N)N)NC(=O)[C@@H]4CCCN4C(=O)[C@H](CC(C)C)NC(=O)[C@@H](N)CCCCn4cc(CNC(=O)c5ccc(-c6c7ccc(=N)c(S(=O)(=O)O)c-7oc7c(S(=O)(=O)O)c(N)ccc67)c(C(=O)O)c5)nn4)C(=O)N[C@@H](CC(=O)O)C(=O)N[C@@H](CO)C(=O)N4CCC[C@H]4C(=O)N[C@@H](Cc4ccccc4)C(=O)N2)NC(=O)[C@H](CCCCN)NC(=O)[C@H](CC(=O)O)NC(=O)CNC(=O)[C@H](CSSC[C@@H](C(=O)N[C@H](C(=O)N2CCC[C@H]2C(=O)N[C@@H](CC(=O)O)C(=O)N[C@H](C(=O)O)C(C)C)C(C)C)NC(=O)[C@H](CC(C)C)NC(=O)CNC(=O)[C@H](Cc2ccccc2)NC(=O)[C@H]([C@@H](C)CC)NC(=O)[C@@H]2CCCN2C(=O)[C@H](CC(C)C)NC(=O)[C@@H]2CCCN2C(=O)[C@H](C(C)C)NC3=O)NC(=O)[C@H](CC(C)C)NC(=O)CNC1=O [Alexa488-ExTxA], the HillSlope (NaV1.7/TMEM233 [2]) is reported as 1.366, the LogEC50 (NaV1.7/TMEM233 [2]) is reported as -6.833 and the Max fluorescence (NaV1.7/TMEM233 [2]; Alexa488-ExTxA 1 µM, NaV1.7/TMEM233, mean ± SEM, n = 3) is reported as 38,799 ± 2471 AFU. For the same compound, the HillSlope (TMEM233) was 1.703, the LogEC50 (TMEM233) was -6.917 and the Max fluorescence (TMEM233; Alexa488-ExTxA 1 µM, TMEM233, mean ± SEM, n = 3) was 38,681 ± 951.2 AFU. For the same compound, the Bottom (NaV1.7/TMEM233 [3]) was 2.016e-5, the HillSlope (NaV1.7/TMEM233 [3]) was 1.084 and the LogEC50 (NaV1.7/TMEM233 [3]) was -7.29. For the same compound, the Span (NaV1.7/TMEM233 [3]) was 0.8012, the Top (NaV1.7/TMEM233 [3]) was 0.8013 and the “Best-fit parameter Bottom” value (NaV1.7/TMEM233 [4]) was 0.00002. The “Best-fit parameter Hill slope” value (NaV1.7/TMEM233 [4]) was 1.084, the “Best-fit parameter Top” value (NaV1.7/TMEM233 [4]) was 0.8013 and the “functional activity of tagged ExTxA” value (NaV1.7/TMEM233 [4]) was “retained functional activity”. For the same compound, the Max fluorescence (HEK293 cells; Alexa488-ExTxA 1 µM, HEK293, mean ± SEM, n = 3) was 15,740 ± 2133 AFU, the HillSlope (HEK293 cells; Untransfected, four-parameter fit, Top = 1) was 0.9756 and the LogEC50 (HEK293 cells; Untransfected, four-parameter fit, Top = 1, 95% CI -5.502 to -5.307) was -5.409. The Max fluorescence (NaV1.7 [5]; Alexa488-ExTxA 1 µM, NaV1.7, mean ± SEM, n = 3) was 20,583 ± 3970 AFU, the HillSlope (NaV1.7 [5]; Nav1.7, four-parameter fit, Top = 1) was 0.7934 and the LogEC50 (NaV1.7 [5]; Nav1.7, four-parameter fit, Top = 1, 95% CI -5.409 to -4.797) was -5.142.
For CC[C@H](C)[C@@H]1NC(=O)[C@H](CCCNC(=N)N)NC(=O)[C@H](Cc2ccccc2)NC(=O)[C@H](CC(C)C)NC(=O)[C@H](CO)NC(=O)[C@@H]2CSSC[C@@H]3NC(=O)[C@H]([C@@H](C)O)NC(=O)[C@H](CSSC[C@H](NC(=O)[C@H](CCCNC(=N)N)NC(=O)[C@@H]4CCCN4C(=O)[C@H](CC(C)C)NC(=O)CCOCCOCCOCCOCCNC(=O)CCCC[C@@H]4SC[C@@H]5NC(=O)N[C@@H]54)C(=O)N[C@@H](CC(=O)O)C(=O)N[C@@H](CO)C(=O)N4CCC[C@H]4C(=O)N[C@@H](Cc4ccccc4)C(=O)N2)NC(=O)[C@H](CCCCN)NC(=O)[C@H](CC(=O)O)NC(=O)CNC(=O)[C@H](CSSC[C@@H](C(=O)N[C@H](C(=O)N2CCC[C@H]2C(=O)N[C@@H](CC(=O)O)C(=O)N[C@H](C(=O)O)C(C)C)C(C)C)NC(=O)[C@H](CC(C)C)NC(=O)CNC(=O)[C@H](Cc2ccccc2)NC(=O)[C@H]([C@@H](C)CC)NC(=O)[C@@H]2CCCN2C(=O)[C@H](CC(C)C)NC(=O)[C@@H]2CCCN2C(=O)[C@H](C(C)C)NC3=O)NC(=O)[C@H](CC(C)C)NC(=O)CNC1=O [ExTxA-Biotin] ({Biotin-PEG4}-LPRCDSPFCSLFRIGLCGDKCTCVPLPIFGLCVPDV-OH; disulfide 4-21, 9-23, 17-32), the Bottom (NaV1.7/TMEM233 [3]) was -0.001461, the HillSlope (NaV1.7/TMEM233 [3]) was 0.9303 and the LogEC50 (NaV1.7/TMEM233 [3]) was -6.256. The Span (NaV1.7/TMEM233 [3]) was 0.7803 and the Top (NaV1.7/TMEM233 [3]) was 0.7788.
For NC1=N[C@H](O)[C@H]2[C@H]3O[C@]4(O)O[C@@H]([C@@H](O)[C@@]2(N1)[C@@H]4O)[C@]3(O)CO [TTX, tetrodotoxin, reference compound], the “Mean Diff. of persistent current, ExTxA vs. ExTxA + TTX” value [6] was 0.5123, the “Mean Diff. of persistent current, ExTxA vs. TTX” value (NaV1.7 [7]) was 0.1483 and the “Mean Diff. of persistent current, ExTxA vs. ExTxA + TTX” value [8] was 0.2464.
In the case of C[C@@H]1O[C@@H](O[C@H]2C[C@@H](O)[C@]3(CO)[C@H]4[C@H](O)C[C@]5(C)[C@@H](C6=CC(=O)OC6)CC[C@]5(O)[C@@H]4CC[C@]3(O)C2)[C@H](O)[C@H](O)[C@H]1O [ouabain, reference compound], the “cytotoxicity of the concentration used” value (TE-671 cells) is reported as “non-cytotoxic”.
COc1ccc(C(=O)O[C@H]2CC[C@@]3(C)[C@@H]4CC[C@H]5[C@]6(O)C[C@H](O)[C@@]7(O)[C@@H](CN8C[C@@H](C)CC[C@H]8[C@@]7(C)O)[C@]6(O)C[C@@]53O[C@]24O)cc1OC [veratridine, reference compound] was tested, and the “cytotoxicity of the concentration used” value (TE-671 cells) was “non-cytotoxic”.
For BSA control, the “Tau Fast, individual values” (NaV1.7 [1]) was 7.097 and 5.916 and 7.352 and 7.278 and 4.563 and 7.588 and 6.382 and 7.242 and 8.803 and the “Tau Fast, mean” value (NaV1.7 [1]) was 6.913.
For FLAG-NaV1.7, the “particles/cell, mean” value (NaV1.7/TMEM233 [9]; mean of n = 3) was 5.245 particles/cell, the particles/cell (NaV1.7/TMEM233 [9]; replicate 1) was 1.95 particles/cell and the particles/cell (NaV1.7/TMEM233 [9]; replicate 2) was 7.467 particles/cell. For the same compound, the particles/cell (NaV1.7/TMEM233 [9]; replicate 3) was 6.319 particles/cell.
